Measurements as given in ChEMBL document CHEMBL1681642, “Synthesis and biological activity of novel MIF antagonists” (Bioorg Med Chem Lett, 2011).

Experiments:
[1] = biological target: T1, Macrophage migration inhibitory factor (Homo sapiens) (UniProt P14174); assay: Inhibition of human purified MIF tautomerase activity at 100 uM after 30 mins
T1 sequence (whole entry): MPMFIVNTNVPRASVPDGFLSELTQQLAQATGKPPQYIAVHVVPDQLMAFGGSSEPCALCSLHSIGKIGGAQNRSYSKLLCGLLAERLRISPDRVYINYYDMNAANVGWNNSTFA

PBMC [2] = assay: Antiinflammatory activity in human PBMC assessed as inhibition of MIF-induced TNFalpha production at 100 uM after 21 hrs by ELISA; type: functional
PBMC [3] = assay: Antiinflammatory activity in human PBMC assessed as inhibition of MIF-induced IL1-beta production at 100 uM after 21 hrs by ELISA; type: functional
PBMC [4] = assay: Antiinflammatory activity in human PBMC assessed as inhibition of MIF-induced IL-6 production at 100 uM after 21 hrs by ELISA; type: functional
[5] = biological target: T1, Macrophage migration inhibitory factor (Homo sapiens); assay: Inhibition of MIF in human PBMC assessed as MIF secretion at 100 uM after 5 hrs by ELISA
[6] = Cytotoxicity against human PBMC assessed as cell viability measured during cytokines production assay at 100 uM after 21 hrs by MTS assay; type: cell-based; conditions: PBMC (peripheral blood mononuclear cells)
[7] = Cytotoxicity against human PBMC assessed as cell viability measured during MIF secretion assay at 100 uM after 21 hrs by MTS assay; type: cell-based; conditions: PBMC (peripheral blood mononuclear cells)
[8] = biological target: T1, Macrophage migration inhibitory factor (Homo sapiens); assay: Inhibition of human purified MIF tautomerase activity at 10 uM after 30 mins
PBMC [9] = assay: Antiinflammatory activity in human PBMC assessed as inhibition of MIF-induced IL-6 production at 30 uM after 21 hrs by ELISA; type: functional
[10] = biological target: T1, Macrophage migration inhibitory factor (Homo sapiens); assay: Inhibition of MIF in human PBMC assessed as MIF secretion at 10 uM after 5 hrs by ELISA

Row | Structure (SMILES) | inhibition [1] [%] | inhibition at 100 µM (PBMC [2]) [%] | inhibition at 100 µM (PBMC [3]) [%] | inhibition at 100 µM (PBMC [4]) [%] | inhibition [5] [%] | cytotoxicity at 21 h, 100 µM [6] [%] | cytotoxicity at 21 h, 100 µM [7] [%] | inhibition [8] [%] | inhibition at 30 µM (PBMC [9]) [%] | inhibition [10] [%]
1 | OCCC1CC(c2cn(-c3cccc(C(F)(F)F)c3)c3ccccc23)=NO1 (stereo not given) | 91 | 88 | 88 | 84 | 0 | 9 | 0 | 0 | 60 | 0
2 | FC(F)(F)c1ccc(C2CC(c3cn(-c4cccc(C(F)(F)F)c4)c4ccccc34)=NO2)cc1 (stereo not given) | 51 | 2 | 15 | 6 | 5 | 6 | 0 | 4 | 3 | 20
3 | Fc1ccc(C2CC(c3ccoc3)=NO2)cc1 (stereo not given) | 41 | 0 | 47 | 15 | 51 | 4 | 0 | 0 | 0 | 0
4 | FC(F)(F)c1ccc(C2CC(c3ccoc3)=NO2)cc1 (stereo not given) | 41 | 76 | 67 | 50 | 60 | 17 | 9 | 15 | 23 | 31
5 | CC1(C(=O)O)CC(c2ccoc2)=NO1 (stereo not given) | 29 | 32 | 15 | 7 | 21 | 10 | 2 | 18 | 14 | 0
6 | O=C1c2ccccc2C(=O)N1C1CC(c2ccoc2)=NO1 (stereo not given) | 0 | 26 | 12 | 13 | 83 | 12 | 0 | 0 | 9 | 49
7 | CC1(C(=O)O)CC(c2cn(-c3cccc(C(F)(F)F)c3)c3ccccc23)=NO1 (stereo not given) | 17 | 39 | 54 | 45 | 14 | 14 | 2 | 2 | 18 | 41
8 | c1cc(C2=NOC(C3CCCCC3)C2)co1 (stereo not given) | 54 | 0 | 15 | 0 | 35 | 1 | 6 | 23 | 0 | 13
9 | O=C1c2ccccc2C(=O)N1C1CC(c2cn(-c3cccc(C(F)(F)F)c3)c3ccccc23)=NO1 (stereo not given) | 47 | 63 | 43 | 24 | 0 | 11 | 0 | 8 | 6 | 0
10 | Fc1ccc(C2CC(c3cn(-c4cccc(C(F)(F)F)c4)c4ccccc34)=NO2)cc1 (stereo not given) | 100 | 0 | 0 | 4 | 0 | 1 | 0 | 55 | 0 | 0
11 | c1cc(C2=NOC(CN3CCOCC3)C2)co1 (stereo not given) | 56 | 0 | 32 | 49 | 78 | 6 | 0 | 20 | 39 | 44
12 | FC(F)(F)c1cccc(-n2cc(C3=NOC(CN4CCOCC4)C3)c3ccccc32)c1 (stereo not given) | 100 | 42 | 51 | 36 | 0 | 10 | 65 | 10 | 22 | 0
13 | COC(=O)CC1(C(=O)OC)CC(c2ccoc2)=NO1 (stereo not given) | 47 | 4 | 57 | 60 | 0 | 8 | 7 | 23 | 53 | 0
14 | O=C1CCCN1C1CC(c2ccoc2)=NO1 (stereo not given) | 18 | 28 | 22 | 49 | 36 | 5 | 0 | 0 | 43 | 0
15 | O=C1CCCN1C1CC(c2cn(-c3cccc(C(F)(F)F)c3)c3ccccc23)=NO1 (stereo not given) | 10 | 68 | 68 | 52 | 0 | 16 | 15 | 1 | 25 | 0
16 | c1ccc(C2CC(c3ccoc3)=NO2)cc1 (stereo not given) | 59 | 50 | 31 | 14 | 68 | 16 | 0 | 17 | 5 | 37
17 | COc1ccc(C2CC(c3ccoc3)=NO2)cc1 (stereo not given) | 72 | 2.5 | 13 | 0 | 82 | 12 | 0 | 10 | 0 | 38
18 | COC(=O)CC1CC(c2ccc(O)cc2)=NO1 (stereo not given) | 59 | 35 | 34 | 12 | 87 | 10 | 8 | 8 | 11 | 35
19 | FC(F)(F)c1cccc(-n2cc(C3=NOC(C4CCCCC4)C3)c3ccccc32)c1 (stereo not given) | 100 | 27 | 43 | 19 | 22 | 7 | 15 | 28 | 4 | 1
20 | c1ccc2c(c1)ccn2CC1CC(c2ccoc2)=NO1 (stereo not given) | 100 | 30 | 19 | 6 | 95 | 6 | 0 | 26 | 0 | 68
21 | OCCC1CC(c2ccoc2)=NO1 (stereo not given) | 23 | 11 | 0 | 7 | 58 | 10 | 0 | 3 | 18 | 39
22 | COC(=O)CC1(C(=O)OC)CC(c2cn(-c3cccc(C(F)(F)F)c3)c3ccccc23)=NO1 (stereo not given) | 76 | 0 | 23 | 4 | 10 | 2 | 0 | 6 | 0 | 0
23 | FC(F)(F)c1cccc(-n2cc(C3=NOC(Cn4ccc5ccccc54)C3)c3ccccc32)c1 (stereo not given) | 100 | 30 | 44 | 17 | 8 | 16 | 0 | 18 | 15 | 0
24 | COc1ccc(C2CC(c3cn(-c4cccc(C(F)(F)F)c4)c4ccccc34)=NO2)cc1 (stereo not given) | 97 | 23 | 37 | 13 | 1 | 3 | 0 | 55 | 5 | 0
25 | FC(F)(F)c1cccc(-n2cc(C3=NOC(c4ccccc4)C3)c3ccccc32)c1 (stereo not given) | 71 | 0 | 12 | 9 | 2 | 8 | 0 | 6 | 18 | 11
